Results from patent publication US20240409935A1, “Atg8ylation coordinates stress granule formation and mTOR inactivation in response to lysosomal damage” (priority 2023, published 2024).

Columns and labels:
[1] = test system: G3BP1 puncta in BMM (bone-marrow-derived macrophages); assay: HCM quantification of G3BP1 puncta in BMM; format: cell-based, murine; details: 2 mM LLOMe for 2 h
Description: Three groups of proteins are labeled (ESCRT components in green, autophagy factors in blue and stress granule components in purple). […] The dotted orange line indicates the significance cut-off (P<0.05). […] The significant increased proteins in LysoIP LC/MS/MS were analyzed by STRING functional protein association networks. […] Strength, Log 10(observed/expected) describes how large the enrichment effect is. […] TMEM192-2×FLAG, control. […] U20S cells Were treated with Earle's Balanced Salt Solution (EBSS), 4 mM LOMe, 2 mM LLOMe, 200 μM GPN, or 400 μg/mL silica for 30 min. White masks, algorithm-defined cell boundaries (primary objects); red masks, computer-identified G3BP1 puncta (target objects). […] The level of phosphorylation of eIF2α (S51) is quantified based on three independent experiments. […] The level of ATF4 and phosphorylation of eIF2α (S51) and 4EBP1 (S65) are quantified based on three independent experiments. […]
The inventors tested whether lysosomal damage induces SG formation using the conventional marker of SGs G3BP1 (Jain et al., 2016; Kedersha et al., 2005; Yang et al., 2020). […] For unbiased quantification, the inventors employed high content microscopy (HCM), which depends on epifluorescence mode to capture all cellular profiles in a volume. […] In all cell lines and primary cells tested, SG formation was observed upon lysosomal damage and quantified by HCM.

[2] = test system: G3BP1+ SGs and lysosomes (LAMP2); assay: HCM quantification of G3BP1+ SGs associated with lysosomes (LAMP2); format: cell-based; details: 30 min after exposure to LLOMe
Description: Do SGs induced by lysosomal damage associate with lysosomes? The inventors addressed this by imaging analysis. By confocal fluorescence microscopy, the majority of G3BP1-positive SGs formed during lysosomal damage were either independent of lysosomes or juxtaposed to lysosomes (FIG. 3SA). By HCM quantification, only 10% of G3BP1^+ SGs appeared associated with lysosomes (LAMP2) 30 min after exposure to lysosomal damaging agent LLOMe. The inventors then asked the question whether SGs formed in response to lysosomal damage initiate as a nidus on the lysosomal surface. Using live microscopy, the inventors observed that the majority of SGs Were forming in locations independent of lysosomes (FIG. 3SB).

[3] = test system: G3BP1 puncta (stress granules) in U2OS cells; assay: HCM quantification of G3BP1 puncta (stress granule formation) in U2OS cells; format: cell-based, human
[4] = test system: eIF2α (S51) phosphorylation; assay: Immunoblot analysis of eIF2α (S51) phosphorylation in U2OS cells; format: cell-based, human; details: U2OS cells
mTOR = assay: mTOR/mTORC1 activity by phosphorylation of its substrates (4EBP1 S65, ULK1 S757, S6K1 T389) in U2OS cells; format: cell-based, human; details: U2OS cells
[5] = test system: DCP1a puncta (P-bodies) in U2OS cells; assay: HCM quantification of DCP1a puncta (P-body formation) in U2OS cells; format: cell-based, human; details: 2 mM LLOMe for 30 min
NUFIP2 = assay: Confocal microscopy of NUFIP2 localisation in Huh7 cells; format: cell-based, human; details: 2 mM LLOMe for 30 min
Description: Huh7 cells Were treated with 2 mM LLOMe for 30 min and stained for endogenous G3BP1 and NUFIP2. Scale bar, 5 μm. […] The sequence in red (SEQ ID NO: 1), predicted NLS in NUFIP2, was deleted for generating NUFIP2ΔNLS. […] FIG. 4SG show the quantification by HCM of overlaps between mTOR and LAMP2 in Gal8WT^HeLa or Gal8KO^HeLa cells treated with 2 mM LLOMe for 30 min. White masks, algorithm-defined cell boundaries. Yellow masks, computer-identified overlap of mTOR and LAMP2. […] Red masks, computer-identified G3BP1 puncta. Ctrl, control (untreated cells). Data, means±SEM; HCM: n≥3 (each experiment: 500 valid primary objects/cells per Well, ≥5 Well s/sample). †p≥0.05 (not significant), **p<0.01, ANOVA. See also FIG. 3 and FIG. 4.

[6] = 2 mM LLOMe 30 min followed by 1 h washout
[7] = indicated dose of LLOMe for 30 min

COC(=O)[C@H](CC(C)C)NC(=O)[C@@H](N)CC(C)C [LLOMe, L-leucyl-L-leucine methyl ester]
SG formation (G3BP1 puncta) [1]: SGs Were detected | G3BP1+ SGs associated with lysosomes (LAMP2) [2]: 10% | number of SGs upon LLOMe washout [3, 6]: reduction in the number of SGs | SG formation response (G3BP1 puncta) ([3]; agent alone for 30 min (2 mM LLOMe, 200 μM GPN, 400 μg/mL silica, 4 mM LOMe)): robust SG formation response | eIF2α pS51 response after LLOMe washout [4, 6]: subsided | phosphorylation of eIF2α on Ser51 ([4]; 2 mM LLOMe for 30 min): induced phosphorylation of eIF2α on Ser51 | phosphorylated eIF2α at later times during treatment ([4]; 2 mM LLOMe, later time points): reduced levels of phosphorylated eIF2α at later times | eIF2α phosphorylation, dose dependence [4, 7]: induced eIF2α phosphorylation | ULK1 phosphorylation by mTOR at Ser757 (mTOR; 2 mM LLOMe for 30 min): diminished | mTOR activity as measured by 4EBP1 phosphorylation (mTOR; 2 mM LLOMe, indicated time points): inhibition of mTOR | mTORC1 inactivation (4EBP1 S65), dose dependence (mTOR; [7]): mTORC1 inactivation in a dose-dependent manner | P-body formation (DCP1a marker) [5]: did not induce P-body | NUFIP2 localisation upon lysosomal damage (NUFIP2): NUFIP2 translocated from the nucleus into the cytosol
